Results taken from US8940898B2, “Piperidinyl alkyne orexin receptor antagonists” (Merck Sharp & Dohme Corp., priority 2011, dated 2015).

What was measured:
human orexin-2 receptor = molecular target: T1, human orexin-2 receptor (Homo sapiens, UniProt O43614); test: radioligand binding assay, OX2 receptor (hOX2 Bind hKi); settings: membranes from CHO cells expressing the OX2 receptor
T1 construct: expressed in transfected cells; host or cells: CHO cells (membranes)
T1 sequence (O43614 1-444): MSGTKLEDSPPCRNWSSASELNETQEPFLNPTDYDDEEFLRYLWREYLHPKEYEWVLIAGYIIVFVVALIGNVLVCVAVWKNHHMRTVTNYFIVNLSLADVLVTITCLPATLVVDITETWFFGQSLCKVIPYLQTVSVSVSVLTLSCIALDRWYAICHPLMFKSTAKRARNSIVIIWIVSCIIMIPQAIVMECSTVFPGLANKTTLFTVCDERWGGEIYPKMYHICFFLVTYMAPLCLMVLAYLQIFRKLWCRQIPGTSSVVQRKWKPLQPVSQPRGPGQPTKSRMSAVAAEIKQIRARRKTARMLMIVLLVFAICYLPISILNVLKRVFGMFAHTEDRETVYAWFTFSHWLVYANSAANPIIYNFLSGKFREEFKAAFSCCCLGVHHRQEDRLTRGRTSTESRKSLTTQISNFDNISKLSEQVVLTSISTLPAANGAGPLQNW
Protocol: The utility of the compounds in accordance with the present invention as orexin receptor OX1R and/or OX2R antagonists may be readily determined without undue experimentation by methodology well known in the art, including the “FLIPR Ca^2+ Flux Assay” (Okumura et al., Biochem. Biophys. Res. Comm. 280:976-981, 2001). In a typical experiment the OX1 and OX2 receptor antagonistic activity of the compounds of the present invention was determined in accordance with the following experimental method. For intracellular calcium measurements, Chinese hamster ovary (CHO) cells expressing the rat orexin-1 receptor or the human orexin-2 receptor, are grown in Iscove's modified DMEM containing 2 mM L-glutamine, […], 1% hypoxanthine-thymidine supplement, 100 U/ml penicillin, 100 μg/ml streptomycin and 10% heat-inactivated fetal calf serum (FCS). The cells are seeded at 20,000 cells/well into Becton-Dickinson black 384-well clear bottom sterile plates coated with poly-D-lysine. All reagents were from GIBCO-Invitrogen Corp. The seeded plates are incubated overnight at 37° C. and 5% CO2. Ala-6,12 human orexin-A as the agonist is prepared as a 1 mM stock solution in 1% bovine serum albumin (BSA) and diluted in assay buffer (HBSS containing 20 mM HEPES, 0.1% BSA and 2.5 mM probenecid, pH7.4) for use in the assay at a final concentration of 70 pM. Test compounds are prepared as 10 mM stock solution in DMSO, then diluted in 384-well plates, first in DMSO, then assay buffer. On the day of the assay, cells are washed 3 times with 100 μl assay buffer and then incubated for 60 min (37° C., 5% CO2) in 60 μl assay buffer containing 1 μM Fluo-4AM ester, 0.02% pluronic acid, and 1% BSA. The dye loading solution is then aspirated and cells are washed 3 times with 100 μl assay buffer. 30 μl of that same buffer is left in each well. Within the Fluorescent Imaging Plate Reader (FLIPR, Molecular Devices), test compounds are added to the plate in a volume of 25 μl, incubated for 5 min and finally 25 μl of agonist is added. Fluorescence is measured for each well at 1 second intervals for 5 minutes and the height of each fluorescence peak is compared to the height of the fluorescence peak induced by […] Ala-6,12 orexin-A with buffer in place of antagonist. For each antagonist, IC50 value (the concentration of compound needed to inhibit 50% of the agonist response) is determined. Alternatively, compound potency can be assessed by a radioligand binding assay (described in Bergman et. al. Bioorg. Med. Chem. Lett. 2008, 18, 1425-1430) in which the inhibition constant (Ki) is determined in membranes prepared from CHO cells expressing either the OX1 or OX2 receptor. The intrinsic orexin receptor antagonist activity of a compound which may be used in the present invention may be determined by these assays. The following tables show representative data for the compounds of the Examples as orexin receptor antagonists as determined by the foregoing assays wherein the hOX2 Ki is a measure of the ability of the test compound to inhibit the action of the human orexin-2 receptor and the hOX1R is a measure of the ability of the test compound to inhibit the action of the rat orexin-1 receptor.

hOX1 (orexin-1 receptor) = molecular target: T2, hOX1 (orexin-1 receptor) (Homo sapiens, UniProt O43613); test: radioligand binding assay, OX1 receptor (hOX1 Bind hKi); settings: membranes from CHO cells expressing the OX1 receptor
T2 construct: expressed in transfected cells; host or cells: CHO cells (membranes)
T2 sequence (O43613 1-425): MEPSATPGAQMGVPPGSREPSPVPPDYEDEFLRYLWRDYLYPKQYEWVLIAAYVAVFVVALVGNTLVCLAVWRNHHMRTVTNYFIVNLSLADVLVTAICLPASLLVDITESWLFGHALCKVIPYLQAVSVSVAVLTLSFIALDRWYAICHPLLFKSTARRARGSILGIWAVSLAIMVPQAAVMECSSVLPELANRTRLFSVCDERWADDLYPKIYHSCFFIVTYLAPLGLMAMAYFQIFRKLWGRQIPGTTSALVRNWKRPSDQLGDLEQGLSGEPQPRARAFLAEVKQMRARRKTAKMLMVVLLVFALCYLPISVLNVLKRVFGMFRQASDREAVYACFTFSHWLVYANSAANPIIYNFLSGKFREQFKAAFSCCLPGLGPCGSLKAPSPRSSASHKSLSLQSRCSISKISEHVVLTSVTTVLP

Ki (human orexin-2 receptor) [nM]	Ki (hOX1 (orexin-1 receptor)) [nM]	SMILES
> 754	233	Cc1nc(C(=O)N2CCCCC2C#Cc2ccc3ccccc3n2)c(-c2ccccc2)s1 (stereo not drawn) [Example 24, 2-({1-[(2-methyl-5-phenyl-1,3-thiazol-4-yl)carbonyl]piperidin-2-yl}ethynyl)quinoline]
> 100	> 364	Cc1nc(C(=O)N2CCCCC2C#Cc2cc3ccccc3cn2)c(-c2ccccc2)s1 (stereo not drawn) [Example 25, 3-({1-[(2-methyl-5-phenyl-1,3-thiazol-4-yl)carbonyl]piperidin-2-yl}ethynyl)isoquinoline]
> 6120	> 1600	Cc1nc(C(=O)N2CCCCC2C#Cc2cnc3ccccc3c2)c(-c2ccccc2)s1 (stereo not drawn) [Example 26, 3-({1-[(2-methyl-5-phenyl-1,3-thiazol-4-yl)carbonyl]piperidin-2-yl}ethynyl)quinoline]
